Measurements: patent US8513270B2, “Substituted heterocycles as Janus kinase inhibitors” (Incyte Corporation, priority 2006, dated 2013)
Counter-ions that a name gives are not always drawn.

Tests used:
[1] = molecular target: T1, human JAK2 (a.a. 828-1132) (Homo sapiens, UniProt O60674); experiment: In vitro JAK kinase assay (HTRF), JAK2; format: biochemical; conditions: JAK2, 30 μM ATP; read-out: EXAMPLE A HTS-JAK2 HTRF-2 IC50
T1 construct: JAK2 (a.a. 828-1132); His tag (N); made in house; host or cells: insect cells (baculovirus)
Description: (§1) Compounds herein were tested for inhibitory activity of JAK targets according to the following in vitro assay described in Park et al., Analytical Biochemistry 1999, 269, 94-104. The catalytic domains of human JAK1 (a.a. 837-1142), JAK2 (a.a. 828-1132) and JAK3 (a.a. 781-1124) with an N-terminal His tag were expressed using baculovirus in insect cells and purified. The catalytic activity of JAK1, JAK2 or JAK3 was assayed by measuring the phosphorylation of a biotinylated peptide. The phosphorylated peptide was detected by homogenous time resolved fluorescence (HTRF). IC50s of compounds were measured for each kinase in the reactions that contain the enzyme, ATP and 500 nM peptide in 50 mM Tris (pH 7.8) buffer with 100 mM NaCl, 5 mM DTT, and 0.1 mg/mL (0.01%) BSA. The ATP concentration in the reactions was 90 μM for JAK1, 30 μM for JAK2 and 3 μM for JAK3. Reactions were carried out at room temperature for 1 hr and then stopped with 20 μL 45 mM EDTA, 300 nM SA-APC, 6 nM Eu—Py20 in assay buffer (Perkin Elmer, Boston, Mass.). Binding to the Europium labeled antibody took place for 40 minutes and HTRF signal was measured on a Fusion plate reader (Perkin Elmer, Boston, Mass.).

[2] = molecular target: TF1-BCRABL1 cells (Homo sapiens, UniProt P00519); experiment: ABL1 cell based assay: viability of ABL1-dependent cell line (CellTiter-Glo); conditions: 72 hours, cell viability; read-out: EXAMPLE F JAK2-TF1-BCRABL1 IC50
Description: One or more compounds herein were tested for inhibitory activity of ABL1 targets according to at least one of the following cellular assays.
Cancer cell lines dependent on ABL1 kinase activity for proliferation and/or survival were plated at 3000 cells per well (96 well plate format) in RPMI 1640, and 10% FBS. Compounds were added to the cells in DMSO/media (final concentration 0.2% DMSO) and incubated for 72 hours at 37° C., 5% CO2. The effect of compound on cell viability was assessed using the CellTiter-Glo Luminescent Cell Viability Assay (Promega) followed by TopCount (Perkin Elmer, Boston, Mass.) quantitation. ABL1-dependent cell lines can include those naturally dependent on ABL1 activity or those engineered to be dependent on ABL1 activity (e.g. BaF/3 cells). The latter can be generated using wild-type ABL1 or mutant ABL1 (such as T315I ABL1) so that the activity of compounds can be assessed against different variants of the ABL1 kinase. Potential off-target effects of compounds were measured in parallel using a non-ABL1 driven cell line with the same assay readout. […] All experiments were performed in duplicate or greater.

[3] = molecular target: T2, human JAK1 (a.a. 837-1142) (Homo sapiens, UniProt P23458); experiment: In vitro JAK kinase assay (HTRF), JAK1; format: biochemical; conditions: JAK1, 90 μM ATP; read-out: EXAMPLE A JAK2-JAK1 HTRF-2 IC50
T2 construct: human JAK1 (a.a. 837-1142); His tag (N); made in house; host or cells: insect cells (baculovirus)
Description: as §1

[4] = molecular target: T3, human JAK3 (a.a. 781-1124) (Homo sapiens, UniProt P52333); experiment: In vitro JAK kinase assay (HTRF), JAK3; format: biochemical; conditions: JAK3, 3 μM ATP; read-out: EXAMPLE A JAK2-JAK3 HTRF-2 IC50
T3 construct: JAK3 (a.a. 781-1124); His tag (N); made in house; host or cells: insect cells (baculovirus)
Description: as §1

Sequence of TF1-BCRABL1 cells (P00519 whole entry, change not shown): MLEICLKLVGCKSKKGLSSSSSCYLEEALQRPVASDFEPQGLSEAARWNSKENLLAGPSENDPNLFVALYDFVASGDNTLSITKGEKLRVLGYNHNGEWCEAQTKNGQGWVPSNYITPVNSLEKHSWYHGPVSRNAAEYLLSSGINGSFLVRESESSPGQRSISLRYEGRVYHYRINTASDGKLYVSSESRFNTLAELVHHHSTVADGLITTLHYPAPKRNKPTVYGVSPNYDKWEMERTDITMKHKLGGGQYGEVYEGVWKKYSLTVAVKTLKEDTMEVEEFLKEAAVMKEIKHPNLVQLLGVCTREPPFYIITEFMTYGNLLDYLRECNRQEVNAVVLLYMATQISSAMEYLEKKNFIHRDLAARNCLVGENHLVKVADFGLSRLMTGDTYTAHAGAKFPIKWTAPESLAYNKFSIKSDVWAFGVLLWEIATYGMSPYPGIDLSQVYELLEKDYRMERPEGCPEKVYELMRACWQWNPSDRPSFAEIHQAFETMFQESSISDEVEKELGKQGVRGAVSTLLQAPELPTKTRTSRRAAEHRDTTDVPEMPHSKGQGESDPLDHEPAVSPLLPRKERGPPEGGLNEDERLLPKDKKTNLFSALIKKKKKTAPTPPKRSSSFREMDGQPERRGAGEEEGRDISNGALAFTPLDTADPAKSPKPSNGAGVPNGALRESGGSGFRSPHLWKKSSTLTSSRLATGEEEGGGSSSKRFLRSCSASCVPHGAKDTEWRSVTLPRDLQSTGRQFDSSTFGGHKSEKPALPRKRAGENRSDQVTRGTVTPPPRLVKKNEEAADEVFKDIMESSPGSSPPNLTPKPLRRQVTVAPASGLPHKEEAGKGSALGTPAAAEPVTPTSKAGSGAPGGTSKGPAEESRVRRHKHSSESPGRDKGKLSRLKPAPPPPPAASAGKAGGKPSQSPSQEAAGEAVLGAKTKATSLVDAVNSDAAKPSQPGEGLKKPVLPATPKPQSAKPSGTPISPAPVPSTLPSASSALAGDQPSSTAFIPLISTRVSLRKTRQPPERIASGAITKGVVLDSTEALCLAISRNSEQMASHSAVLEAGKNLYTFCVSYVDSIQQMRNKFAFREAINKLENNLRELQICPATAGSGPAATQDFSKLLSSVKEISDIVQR
T3 sequence (P52333 781-1124): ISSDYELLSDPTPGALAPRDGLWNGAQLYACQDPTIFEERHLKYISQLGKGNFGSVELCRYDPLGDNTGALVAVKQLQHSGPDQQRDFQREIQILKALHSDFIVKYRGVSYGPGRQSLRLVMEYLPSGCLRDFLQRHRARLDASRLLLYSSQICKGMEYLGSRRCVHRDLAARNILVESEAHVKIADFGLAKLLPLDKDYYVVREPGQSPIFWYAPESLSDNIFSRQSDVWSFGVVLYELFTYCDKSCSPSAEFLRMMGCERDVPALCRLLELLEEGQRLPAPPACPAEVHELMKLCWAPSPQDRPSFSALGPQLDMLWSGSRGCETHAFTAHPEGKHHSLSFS
T1 sequence (O60674 828-1132): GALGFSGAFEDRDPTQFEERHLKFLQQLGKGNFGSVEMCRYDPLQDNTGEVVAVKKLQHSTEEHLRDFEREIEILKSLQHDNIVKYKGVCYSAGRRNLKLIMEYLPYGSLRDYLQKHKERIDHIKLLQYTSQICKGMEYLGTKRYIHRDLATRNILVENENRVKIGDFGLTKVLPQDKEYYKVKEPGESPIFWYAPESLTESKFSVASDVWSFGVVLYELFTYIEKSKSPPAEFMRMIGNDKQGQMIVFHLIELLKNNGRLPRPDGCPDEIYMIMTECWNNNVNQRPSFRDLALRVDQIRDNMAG
T2 sequence (P23458 849-1154): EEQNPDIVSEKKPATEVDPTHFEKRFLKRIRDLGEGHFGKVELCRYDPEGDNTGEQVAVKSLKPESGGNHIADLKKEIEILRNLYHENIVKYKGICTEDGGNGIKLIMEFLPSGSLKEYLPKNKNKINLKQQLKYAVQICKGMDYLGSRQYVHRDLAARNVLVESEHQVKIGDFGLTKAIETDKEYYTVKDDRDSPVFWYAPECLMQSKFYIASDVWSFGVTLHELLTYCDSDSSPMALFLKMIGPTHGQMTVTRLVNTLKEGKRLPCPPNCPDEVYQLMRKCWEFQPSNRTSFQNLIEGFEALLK

| Structure (SMILES) | IC50 [1] | IC50 [3] | IC50 [4] | GI50 [2] |
| --- | --- | --- | --- | --- |
| Cc1ccc(NC(=O)c2cc(C(F)(F)F)ccc2F)cc1-c1ccc2c(c1)[nH]c1ncncc12 [Example 5, 2-fluoro-N-[4-methyl-3-(9H-pyrimido[4,5-b]indol-7-yl)-phenyl]-5-(trifluoromethyl)-benzamide] | ≤ 500 nM | ≤ 500 nM | ≤ 500 nM | ≤ 500 nM |
| Cc1ccc(NC(=O)c2cc(C(F)(F)F)cc(Cl)c2F)cc1-c1ccc2c(c1)[nH]c1ncncc12 [Example 8, 3-chloro-2-fluoro-N-[4-methyl-3-(9H-pyrimido[4,5-b]-indol-7-yl)phenyl]-5-(trifluoro-methyl)benzamide] | ≤ 500 nM | ≤ 500 nM | ≤ 500 nM | ≤ 500 nM |
| Cc1ccc(NC(=O)c2cc(C(F)(F)F)cc(C(F)(F)F)c2)cc1-c1ccc2c(c1)[nH]c1ncncc12 [Example 9, N-[4-methyl-3-(9H-pyrimido-[4,5-b]indol-7-yl)phenyl]-3,5-bis(trifluoromethyl)benzamide] | ≤ 500 nM | ≤ 500 nM | ≤ 500 nM | ≤ 500 nM |
| Cc1ccc(NC(=O)c2cc(C(F)(F)F)ccn2)cc1-c1ccc2c(c1)[nH]c1ncncc12 [Example 18, N-[4-methyl-3-(9H-pyrimido[4,5-b]indol-7-yl)-phenyl]-4-(trifluoromethyl) pyridine-2-carboxamide] | ≤ 500 nM | ≤ 500 nM | ≤ 500 nM | ≤ 500 nM |
| Cc1ccc(NC(=O)c2cc(-n3cnc(C=O)c3)cc(C(F)(F)F)c2)cc1-c1ccc2c(c1)[nH]c1ncncc12 [Example 20, 3-(4-Formyl-1H-imidazol-1-yl)-N-[4-methyl-3-(9H-pyrimido[4,5-b]indol-7-yl)phenyl]-5-(trifluoromethyl)benzamide trifluoroacetate] | ≤ 500 nM | ≤ 500 nM | ≤ 500 nM | ≤ 500 nM |
| Cc1ccc(NC(=O)c2cc(-n3cnc(CO)c3)cc(C(F)(F)F)c2)cc1-c1ccc2c(c1)[nH]c1ncncc12 [Example 21, 3-[4-(Hydroxymethyl)-1H-imidazol-1-yl]-N-[4-methyl-3-(9H-pyrimido[4,5-b]indol-7-yl)phenyl]-5-(trifluoromethyl)benzamide bis(trifluoroacetate) (salt)] | ≤ 500 nM | ≤ 500 nM | ≤ 500 nM | ≤ 500 nM |
| Cc1ccc(NC(=O)c2cc(-n3cncn3)cc(C(F)(F)F)c2)cc1-c1ccc2c(c1)[nH]c1ncncc12 [Example 24, N-[4-methyl-3-(9H-pyrimido-[4,5-b]indol-7-yl)phenyl]-3-(1H-1,2,4-triazol-1-yl)-5-(trifluoromethyl)benzamide] | ≤ 500 nM | ≤ 500 nM | ≤ 500 nM | ≤ 500 nM |
| Cc1ccc(NC(=O)c2cc(N3CCOCC3)cc(C(F)(F)F)c2)cc1-c1ccc2c(c1)[nH]c1ncncc12 [Example 27, N-[4-methyl-3-(9H-pyrimido-[4,5-b]indol-7-yl)phenyl]-3-morpholin-4-yl-5-(trifluoromethyl)benzamide] | ≤ 500 nM | ≤ 500 nM | ≤ 500 nM | ≤ 500 nM |
| Cc1ccc(NC(=O)c2cc(N3CCC(O)CC3)cc(C(F)(F)F)c2)cc1-c1ccc2c(c1)[nH]c1ncncc12 [Example 29, 3-(4-hydroxypiperidin-1-yl)-N-[4-methyl-3-(9H-pyrimido[4,5-b]indol-7-yl)phenyl]-5-(trifluoromethyl)benzamide] | ≤ 500 nM | ≤ 500 nM | ≤ 500 nM | ≤ 500 nM |
| Cc1ccc(NC(=O)c2cc(N3CCCC(O)C3)cc(C(F)(F)F)c2)cc1-c1ccc2c(c1)[nH]c1ncncc12 (stereo not shown) [Example 30, 3-(3-hydroxypiperidin-1-yl)-N-[4-methyl-3-(9H-pyrimido[4,5-b]indol-7-yl)phenyl]-5-(trifluoromethyl)benzamide] | ≤ 500 nM | ≤ 500 nM | ≤ 500 nM | ≤ 500 nM |
| Cc1ccc(NC(=O)c2cc(NCCN3CCOCC3)cc(C(F)(F)F)c2)cc1-c1ccc2c(c1)[nH]c1ncncc12 [Example 31, N-[4-methyl-3-(9H-pyrimido-[4,5-b]indol-7-yl)phenyl]-3-[(2-morpholin-4-ylethyl)amino]-5-(trifluoromethyl)benzamide] | ≤ 500 nM | ≤ 500 nM | ≤ 500 nM | ≤ 500 nM |
| Cc1ccc(NC(=O)c2cc(N3CCN(CCO)CC3)cc(C(F)(F)F)c2)cc1-c1ccc2c(c1)[nH]c1ncncc12 [Example 32, 3-[4-(2-hydroxyethyl)piperazin-1-yl]-N-[4-methyl-3-(9H-pyrimido[4,5-b]indol-7-yl)-phenyl]-5-(trifluoromethyl)-benzamide] | ≤ 500 nM | ≤ 500 nM | ≤ 500 nM | ≤ 500 nM |
| Cc1ccc(NC(=O)c2cc(NCCCN(C)C)cc(C(F)(F)F)c2)cc1-c1ccc2c(c1)[nH]c1ncncc12 [Example 33, 3-{[3-(dimethylamino)propyl]-amino}-N-[4-methyl-3-(9H-pyrimido[4,5-b]indol-7-yl)-phenyl]-5-(trifluoromethyl)-benzamide] | ≤ 500 nM | ≤ 500 nM | ≤ 500 nM | ≤ 500 nM |

Now from value to compound, other results behind:

| IC50 [1] | IC50 [3] | IC50 [4] | Structure (SMILES) | GI50 [2] |
| --- | --- | --- | --- | --- |
| ≤ 500 nM | ≤ 500 nM | ≤ 500 nM | Cc1ccc(NC(=O)c2ccc(F)c(C(F)(F)F)c2)cc1-c1ccc2c(c1)[nH]c1ncncc12 [Example 4, 4-fluoro-N-[4-methyl-3-(9H-pyrimido[4,5-b]indol-7-yl)-phenyl]-3-(trifluoromethyl)benzamide] | ≤ 500 nM |
| ≤ 500 nM | ≤ 500 nM | ≤ 500 nM | COc1ccc(C(=O)Nc2ccc(C)c(-c3ccc4c(c3)[nH]c3ncncc34)c2)cc1C(F)(F)F [Example 10, 4-methoxy-N-[4-methyl-3-(9H-pyrimido[4,5-b]indol-7-yl)-phenyl]-3-(trifluoromethyl)-benzamide] | ≤ 500 nM |
| ≤ 500 nM | ≤ 500 nM | ≤ 500 nM | O=C(Nc1ccc(Cl)c(-c2ccc3c(c2)[nH]c2ncncc23)c1)c1cccc(C(F)(F)F)c1 [Example 17, N-[4-chloro-3-(9H-pyrimido-[4,5-b]indol-7-yl)phenyl]-3-(trifluoromethyl)benzamide] | ≤ 500 nM |
| ≤ 500 nM | ≤ 500 nM | ≤ 500 nM | CNCc1cn(-c2cc(C(=O)Nc3ccc(C)c(-c4ccc5c(c4)[nH]c4ncncc45)c3)cc(C(F)(F)F)c2)cn1 [Example 22, 3-4-[(Methylamino)methyl]-1H-imidazol-1-yl-N-[4-methyl-3-(9H-pyrimido[4,5-b]-indol-7-yl)phenyl]-5-(trifluoromethyl)benzamide tris(trifluoroacetate)] | ≤ 500 nM |
| ≤ 500 nM | ≤ 500 nM | ≤ 500 nM | Cc1ccc(NC(=O)c2cc(-n3ccnc3)cc(C(F)(F)F)c2)cc1-c1ccc2c(c1)[nH]c1ncncc12 [Example 23, 3-(1H-imidazol-1-yl)-N-[4-methyl-3-(9H-pyrimido[4,5-b]-indol-7-yl)phenyl]-5-(trifluoromethyl)benzamide] | ≤ 500 nM |
| ≤ 500 nM | ≤ 500 nM | ≤ 500 nM | Cc1ccc(NC(=O)c2cc(-n3cnc(CN(C)C)c3)cc(C(F)(F)F)c2)cc1-c1ccc2c(c1)[nH]c1ncncc12 [Example 25, 3-{4-[(dimethylamino)methyl]-1H-imidazol-1-yl}-N-[4-methyl-3-(9H-pyrimido[4,5-b]-indol-7-yl)phenyl]-5-(trifluoro-methyl)benzamide] | ≤ 500 nM |
